These results are taken from US10202371B2, “Oxazolidin-2-one-pyrimidine derivatives and the use thereof as phosphatidylinositol-3-kinase inhibitors” (Novartis AG, priority 2012, dated 2019).

Each structure is given as a SMILES string.

The assay addresses PI3Kgamma (Homo sapiens (Human), UniProt P48736). The assay is described as follows: Biochemical assay PI3Kgamma (Adapta TR-FRET). The note with it: read-out: PI3Kg/IC50. An excerpt: The TR-FRET Adapta™ Universal Kinase Assay Kit was purchased from Invitrogen
Corporation (Carlsbad/CA, USA) (Cat. No. PV5099). The kit contains the following reagents: Adapta Eu-anti-ADP Antibody (Europium labeled anti-ADP antibody in HEPES buffered saline, Cat. No. PV5097), Alexa Fluor® 647-labeled ADP tracer (Alexa Fluor® 647-labeled ADP tracer in HEPES buffered saline, Cat. No. PV5098), proprietary TR-FRET dilution buffer pH 7.5 (Cat. No. PV3574).
PIK3CD substrate Phosphatidylinositol was obtained from Invitrogen (vesicules consisting of 2 mM PI in 50 mM HEPES pH7.5; Cat. No. PV5371).
Time-Resolved Fluorescence Resonance Energy Transfer (TR-FRET) is a technology based on energy transfer between two adjacent dyes, from an excited electron in one dye (the donor) to an electron of an adjacent dye (the acceptor) through resonance, then released as a photon. This energy transfer is detected by an increase in the fluorescence emission of the acceptor, and a decrease in the fluorescence emission of the donor. TR-FRET assays for protein kinases use a long-lifetime lanthanide Terbium or Europium chelates as the donor species which overcome interference from compound autofluorescence or light scatter from precipitated compounds, by introducing a delay after excitation by a flashlamp excitation source. Results are often expressed as a ratio of the intensities of the acceptor and donor fluorophores. The ratiometric nature of such a value corrects for differences in assay volumes between wells, as well as corrects for quenching effects due to colored compounds. The Adapta™ assay can be divided into two phases: a kinase reaction phase and an ADP detection phase. In the kinase reaction phase, all kinase reaction components are added to the well and the reaction is allowed to incubate for a set period of time specific for each kinase. After the reaction, a detection solution of Eu-labeled anti-ADP antibody, Alexa Fluor® 647-labeled ADP tracer, and EDTA (to stop the kinase reaction) are added to the assay well. ADP formed by the kinase reaction will displace the Alexa Fluor® 647-labeled ADP tracer from the antibody, resulting in a decrease in TR-FRET signal. In the presence of an inhibitor, the amount of ADP formed by the kinase reaction is reduced, and the resulting intact antibody-tracer interaction maintains a high TR-FRET signal. In the Adapta™ assay, the donor (Europium-anti-ADP antibody) is excited at 340 nm and will transfer its energy to the acceptor (Alexa Fluor® 647-labeled ADP tracer). The emission from the Alexa Fluor® 647 can be monitored with a filter centered at 665 nm because it is located between the emission peaks of the donor, which is measured at 615/620 nm.
50 nL of compound dilutions were dispensed onto white 384-well small volume polystyrene plate as described in section 2.2. Then 5 μL of PI3Kg and PI3Kd and lipid substrate (PI or PIP2:PS) followed by 5 μL of ATP (final assay volume 10 μL) are incubated at RT. The standard reaction buffer for the Adapta™ TR-FRET assay contained 10 mM Tris-HCl pH 7.5, 3 mM MgCl2, 50 mM NaCl, 1 mM DTT, 0.05% CHAPS. Reactions were stopped with 5 μL of a mixture of EDTA containing the Eu-labeled anti-ADP antibody and the Alexa Fluor® 647-labeled ADP tracer in TR-FRET dilution buffer (proprietary to IVG). Plates are read 15 to 60 mins later in a Synergy2 reader using an integration time of 0.4 seconds and a delay of 0.05 seconds. […] The standard compound NVP-BGT226 was used as a reference compound and included in all assay plates in the form of 16 dilution points in duplicate.
Data are analyzed using Excel fit software or Graphpad Prism. EC50 values were derived by fitting a sigmoidal dose-response curve to a plot of assay readout over inhibitor concentration. All fits were performed with the program XLfit4 (ID Business Solutions, Guildford, UK). […] All fits were performed with the program XLfit4 (ID Business Solutions, Guildford, UK).
On the technique in general: In TR-FRET formats the signal depends on donor and acceptor labels being close together.

Sequence of PI3Kgamma (P48736 whole entry, species assumed): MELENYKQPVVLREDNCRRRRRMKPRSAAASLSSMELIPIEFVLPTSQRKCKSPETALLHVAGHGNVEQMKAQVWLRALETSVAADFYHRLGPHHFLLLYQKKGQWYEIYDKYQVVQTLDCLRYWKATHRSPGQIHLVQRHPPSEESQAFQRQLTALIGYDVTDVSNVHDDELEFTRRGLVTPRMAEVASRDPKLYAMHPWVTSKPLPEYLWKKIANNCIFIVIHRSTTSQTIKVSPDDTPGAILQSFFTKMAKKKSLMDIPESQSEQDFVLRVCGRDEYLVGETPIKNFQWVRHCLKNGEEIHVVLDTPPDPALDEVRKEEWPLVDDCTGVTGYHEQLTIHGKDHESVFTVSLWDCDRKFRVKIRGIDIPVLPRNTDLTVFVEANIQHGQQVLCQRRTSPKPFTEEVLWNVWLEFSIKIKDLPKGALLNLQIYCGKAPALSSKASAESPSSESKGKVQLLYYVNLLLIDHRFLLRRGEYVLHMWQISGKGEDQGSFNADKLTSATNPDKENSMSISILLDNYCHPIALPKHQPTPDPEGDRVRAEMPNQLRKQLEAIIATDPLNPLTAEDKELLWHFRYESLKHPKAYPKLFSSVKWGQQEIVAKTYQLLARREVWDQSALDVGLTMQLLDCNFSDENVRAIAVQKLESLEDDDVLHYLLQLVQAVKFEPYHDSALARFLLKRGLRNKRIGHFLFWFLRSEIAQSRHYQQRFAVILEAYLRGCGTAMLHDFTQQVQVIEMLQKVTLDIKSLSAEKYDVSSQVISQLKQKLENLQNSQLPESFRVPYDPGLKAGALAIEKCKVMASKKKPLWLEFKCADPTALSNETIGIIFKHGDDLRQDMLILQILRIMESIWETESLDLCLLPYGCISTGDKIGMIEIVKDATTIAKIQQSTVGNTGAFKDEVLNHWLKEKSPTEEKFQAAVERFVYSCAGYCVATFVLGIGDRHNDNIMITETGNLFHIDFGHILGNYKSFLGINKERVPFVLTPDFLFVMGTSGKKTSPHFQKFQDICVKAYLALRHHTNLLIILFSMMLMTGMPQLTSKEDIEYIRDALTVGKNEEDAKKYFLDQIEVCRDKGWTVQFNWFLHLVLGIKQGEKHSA

For the compound `CC[C@H]1[C@H](c2ccc(OC)cc2)OC(=O)N1c1cc(-c2cnc(N)nc2C(F)(F)F)nc(N2CCOCC2)n1` (relative stereo) [Example 2, (4S*,5S*)-3-(2′-amino-2-morpholino-4′-(trifluoromethyl)-[4,5′-bipyrimidin]-6-yl)-4-ethyl-5-(4-methoxyphenyl)oxazolidin-2-one], the IC50 came out at 5.8 µM.
On to `C[C@H]1[C@H](c2nccs2)OC(=O)N1c1cc(-c2cnc(N)nc2C(F)(F)F)nc(N2CCOCC2)n1` [Example 1, (4S,5R)-3-(2′-Amino-2-morpholin-4-yl-4′-trifluoromethyl-[4,5′]bipyrimidinyl-6-yl)-4-methyl-5-thiazol-2-yl-oxazolidin-2-one], for which the IC50 is 0.092 µM.
For the compound `COc1ccc([C@@H]2OC(=O)N(c3cc(-c4cnc(N)nc4C(F)(F)F)nc(N4CCOCC4)n3)[C@H]2CO)cc1` [Example 3, (4S,5S)-3-(2′-Amino-2-morpholino-4′-(trifluoromethyl)-[4,5′-bipyrimidin]-6-yl)-4-(hydroxymethyl)-5-(4-methoxyphenyl)oxazolidin-2-one], the IC50 amounted to 0.11 µM.
Turning to `C[C@H]1[C@H](c2ccccc2)OC(=O)N1c1cc(-c2cnc(N)nc2C(F)(F)F)nc(N2CCOCC2)n1` [Example 5], the IC50 turned out to be 3.5 µM.
For the compound `CC[C@H]1[C@H](c2nccs2)OC(=O)N1c1cc(-c2cnc(N)nc2C(F)(F)F)nc(N2CCOCC2)n1` [Example 7], the IC50 stood at 3 µM.
For the compound `CCC1C(c2cccnc2)OC(=O)N1c1cc(-c2cnc(N)nc2C(F)(F)F)nc(N2CCOCC2)n1` (stereo not drawn) [Example 8], the IC50 is 0.58 µM.
In the case of `CC1C(c2cccnc2)OC(=O)N1c1cc(-c2cnc(N)nc2C(F)(F)F)nc(N2CCOCC2)n1` (stereo not drawn) [Example 9], the IC50 was 0.23 µM.
`Nc1ncc(-c2cc(N3C(=O)O[C@@H](c4ccccc4)[C@@H]3CO)nc(N3CCOCC3)n2)c(C(F)(F)F)n1` [Example 10]: the IC50 was 0.343 µM.
`C[C@H]1[C@@H](c2nccs2)OC(=O)N1c1cc(-c2cnc(N)nc2C(F)(F)F)nc(N2CCOCC2)n1` [Example 11]: the IC50 was determined as 0.102 µM.
With `COCCOc1ccc([C@@H]2OC(=O)N(c3cc(-c4cnc(N)nc4C(F)(F)F)nc(N4CCOCC4)n3)[C@H]2CO)cc1` [Example 12] the figure was 0.135 µM; with `Nc1ncc(-c2cc(N3C(=O)O[C@@H](c4ccc(OCCO)cc4)[C@@H]3CO)nc(N3CCOCC3)n2)c(C(F)(F)F)n1` [Example 13], 0.1 µM; with `Nc1ncc(-c2cc(N3C(=O)O[C@@H](c4ccc(OCCCO)cc4)[C@@H]3CO)nc(N3CCOCC3)n2)c(C(F)(F)F)n1` [Example 14], 0.027 µM.
